This note sets out measurements from PubChem BioAssay (NCI).

Values joined by “and” are separate entries in the source; they are usually repeats but may differ in a detail not shown here. Equal entries are not always repeated.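 Test compounds were applied to cells in 96-well plates for 48 hours at 5 doses. GI50 marks 50% less growth. TGI: total growth inhibition.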

Among the test systems are NCI-H226 lung; HOP-92 NSCLC; HCT-15 colon; OVCAR-8 ovarian; SK-MEL-5 melanoma; BT-549 breast; T-47D breast; SK-MEL-2 melanoma; SN12C renal; EKVX NSCLC.
Assay in all cases: inhibition of tumour cell growth, NCI panel, 48 h

On to `O=C(c1ccc2ccccc2c1)c1c(C(F)(F)F)n([O-])c2ccc(F)cc2[n+]1=O`, for which the GI50 was 1.96 µM in the test with NCI-H226 lung; 1.21 µM with HOP-92 NSCLC; 0.354 µM in the test with HCT-15 colon; 0.324 µM with OVCAR-8 ovarian; 1.75 µM in the test with SK-MEL-5 melanoma; 1.75 µM in the test with BT-549 breast. Also, the GI50 in the test with T-47D breast is 1.56 µM; in the test with SK-MEL-2 melanoma, 1.2 µM; with SN12C renal, 1.29 µM; in the test on EKVX NSCLC it was 1.8 µM. The TGI with NCI-H226 lung stood at 3.97 µM; in the test on HOP-92 NSCLC it was 2.95 µM; in the test on HCT-15 colon, 1.26 µM; in the test on OVCAR-8 ovarian, 1.21 µM; with SK-MEL-5 melanoma it was 3.16 µM; in the test on BT-549 breast, 3.22 µM. For the same molecule, the TGI in the test on T-47D breast came out at 4.05 µM; with SK-MEL-2 melanoma, 2.82 µM; in the test on SN12C renal it was 2.74 µM; in the test with EKVX NSCLC it was 3.35 µM.
`Cc1cc(Br)cc(C)c1NC(=O)C(=O)Nn1c(=S)[nH]c2ccccc2c1=O`: the TGI with NCI-H226 lung, with HOP-92 NSCLC, with HCT-15 colon, in the test on OVCAR-8 ovarian, with SK-MEL-5 melanoma and in the test on BT-549 breast was > 100 µM throughout. For the same molecule, the TGI with T-47D breast, in the test on SK-MEL-2 melanoma, with SN12C renal and with EKVX NSCLC was > 100 µM in each case.
For `COc1cc(Cn2c(-c3ccccc3)cc3c2-c2oncc2CC3)cc(OC)c1`, the GI50 in the test with NCI-H226 lung was 0.93 µM; in the test on HOP-92 NSCLC, 4.11 µM; in the test on HCT-15 colon, 0.361 µM; in the test with OVCAR-8 ovarian it was 0.592 µM; in the test with SK-MEL-5 melanoma it was 0.372 µM; in the test with BT-549 breast, 0.9 µM. The GI50 is > 100 µM in the test on T-47D breast, 81.2 µM with SK-MEL-2 melanoma, 0.738 µM in the test on SN12C renal and 0.449 µM in the test on EKVX NSCLC. For the same molecule, the TGI is > 100 µM in the test with NCI-H226 lung; > 100 µM with HOP-92 NSCLC; > 100 µM in the test with HCT-15 colon; > 100 µM in the test on OVCAR-8 ovarian; 2.02 µM with SK-MEL-5 melanoma; > 100 µM in the test with BT-549 breast. Moreover, the TGI in the test with T-47D breast, in the test on SK-MEL-2 melanoma, with SN12C renal and with EKVX NSCLC was > 100 µM throughout.
For `COc1cccc(NC2=C(Cl)C(=O)N(Cc3ccc(Cl)cc3)C2=O)c1`, the GI50 in the test with NCI-H226 lung was 1.27 µM; with HOP-92 NSCLC it was 13.1 µM; with HCT-15 colon it was 1.05 µM; with OVCAR-8 ovarian it was 1.82 µM; with SK-MEL-5 melanoma, 1.21 µM; in the test on BT-549 breast, 0.655 µM. Besides, the GI50 with T-47D breast was 10.9 µM; with SK-MEL-2 melanoma, 12.5 µM; with SN12C renal, 2.61 µM; with EKVX NSCLC, 12.5 µM. For the same molecule, the TGI with NCI-H226 lung was 6.86 µM; with HOP-92 NSCLC, 35.4 µM; with HCT-15 colon it was 8.62 µM; in the test on OVCAR-8 ovarian it was > 43.1 µM; with SK-MEL-5 melanoma, 6.09 µM; with BT-549 breast, 4.18 µM. Moreover, the TGI in the test with T-47D breast was > 100 µM; with SK-MEL-2 melanoma it was > 23.8 µM; with SN12C renal, 12.9 µM; in the test with EKVX NSCLC it was 38.8 µM.
Consider `Cc1c(Cl)cccc1NC(=O)c1sc2nc3c(cc2c1N)CCCC3`, for which the GI50 in the test with NCI-H226 lung is > 100 µM; in the test with HOP-92 NSCLC it was 0.994 µM; in the test on HCT-15 colon, 0.392 µM; in the test on OVCAR-8 ovarian, 3.42 µM; with SK-MEL-5 melanoma, 0.513 µM; in the test with BT-549 breast it was 0.591 µM. Besides, the GI50 with T-47D breast is 0.402 µM; with SK-MEL-2 melanoma, 0.46 µM; with SN12C renal it was 5.88 µM; with EKVX NSCLC, 0.64 µM. The TGI with NCI-H226 lung, in the test on HOP-92 NSCLC, with HCT-15 colon, in the test on OVCAR-8 ovarian, in the test with SK-MEL-5 melanoma and in the test with BT-549 breast was > 100 µM in each case. Also, the TGI with T-47D breast, in the test with SK-MEL-2 melanoma, with SN12C renal and in the test with EKVX NSCLC was > 100 µM in each case.
As to H-QIYKKYRTWYRKAWKVLGKV-NH2, the GI50 with NCI-H226 lung was 12.4 µM; with HOP-92 NSCLC, 1.95 µM; in the test on HCT-15 colon, 2.92 µM; in the test on OVCAR-8 ovarian, 3.8 µM; with SK-MEL-5 melanoma it was 2.84 µM; with BT-549 breast, 5.36 µM. Also, the GI50 with T-47D breast is 2.06 µM; in the test with SK-MEL-2 melanoma, 16.5 µM; in the test with SN12C renal it was 3.56 µM; in the test on EKVX NSCLC, 3.04 µM. The TGI in the test on NCI-H226 lung was 58.7 µM; in the test on HOP-92 NSCLC it was 4.81 µM; in the test with HCT-15 colon, 17 µM; in the test with OVCAR-8 ovarian it was > 100 µM; in the test with SK-MEL-5 melanoma, 8.7 µM; in the test on BT-549 breast, 27.2 µM. The TGI was 5.2 µM with T-47D breast, 49.8 µM with SK-MEL-2 melanoma, 15 µM in the test with SN12C renal and 11.7 µM in the test on EKVX NSCLC.
On to `CC(/C=N/N=C(N)N)=N\N=C(N)N`, for which the TGI is 459 µM in the test on NCI-H226 lung; 62.5 µM with HOP-92 NSCLC; 2500 µM with HCT-15 colon; > 76 µM and 378 µM with OVCAR-8 ovarian; 604 µM in the test with SK-MEL-5 melanoma; 928 µM with BT-549 breast. For the same molecule, the TGI in the test with T-47D breast was 31 µM and 23.4 µM; in the test with SK-MEL-2 melanoma, 149 µM; with SN12C renal it was 941 µM; with EKVX NSCLC, 499 µM. Moreover, the GI50 in the test with HOP-92 NSCLC is 54.4 µM; in the test with HCT-15 colon, > 51.4 µM; in the test on OVCAR-8 ovarian, 11.6 µM; in the test with SK-MEL-5 melanoma, > 79.5 µM; in the test with BT-549 breast, 40.9 µM; with T-47D breast, 5.02 µM. Moreover, the GI50 with SK-MEL-2 melanoma is 28.9 µM; with EKVX NSCLC, 61.5 µM.
As to `O=C(/C=C/c1ccc([N+](=O)[O-])cc1)c1cccc(Nc2nc(Nc3ccccc3)nc(Nc3ccccc3)n2)c1`, the GI50 with NCI-H226 lung is 14.4 µM; with HOP-92 NSCLC, 0.662 µM; with HCT-15 colon, 17.7 µM; in the test on OVCAR-8 ovarian it was 14 µM; in the test on SK-MEL-5 melanoma it was 1.13 µM; in the test with BT-549 breast, 27 µM. For the same molecule, the GI50 in the test on T-47D breast is 9.75 µM; in the test with SK-MEL-2 melanoma, 17.7 µM; in the test with SN12C renal, 26.8 µM; in the test on EKVX NSCLC it was 22.3 µM. Also, the TGI is 44.9 µM in the test with NCI-H226 lung; 8.5 µM in the test on HOP-92 NSCLC; > 100 µM with HCT-15 colon; > 100 µM in the test with OVCAR-8 ovarian; 17.6 µM with SK-MEL-5 melanoma; > 100 µM in the test on BT-549 breast. Besides, the TGI is > 100 µM in the test with T-47D breast, 54.6 µM with SK-MEL-2 melanoma, > 100 µM with SN12C renal and > 100 µM in the test on EKVX NSCLC.
In the case of `N#C/C(=C\c1ccc2[nH]ccc2c1)C(=O)c1ccc(O)c(O)c1`, the TGI in the test with NCI-H226 lung, with HOP-92 NSCLC, in the test on HCT-15 colon, with OVCAR-8 ovarian, in the test on SK-MEL-5 melanoma and with BT-549 breast was > 100 µM each time. For the same molecule, the TGI with T-47D breast, in the test on SK-MEL-2 melanoma, in the test with SN12C renal and in the test on EKVX NSCLC was > 100 µM throughout.
On to `O=S(=O)(O)SCCNCCCCCC1CCCCC1`, for which the TGI in the test on NCI-H226 lung is 30.6 µM; in the test on HOP-92 NSCLC it was 39.9 µM; in the test on HCT-15 colon, 24.5 µM; in the test on OVCAR-8 ovarian, 33.1 µM; in the test with SK-MEL-5 melanoma, 31.9 µM; in the test on BT-549 breast it was 31.4 µM. Also, the TGI came out at 35.7 µM with T-47D breast, 8.68 µM in the test with SK-MEL-2 melanoma, 11.3 µM with SN12C renal and 22.9 µM with EKVX NSCLC.
As for `O=C1/C(=C\c2ccccc2)C2OCC=C3CN4CCC56c7ccccc7N1C5C2C3CC46` (stereo not drawn), the GI50 was 11.3 µM with NCI-H226 lung; 6.27 µM with HOP-92 NSCLC; 7.77 µM in the test on HCT-15 colon; 85.8 µM with OVCAR-8 ovarian; 4.84 µM in the test on SK-MEL-5 melanoma; 34.2 µM in the test on BT-549 breast. Moreover, the GI50 in the test on T-47D breast is 64.8 µM; with SK-MEL-2 melanoma, 3.78 µM; with SN12C renal, 26.2 µM; in the test on EKVX NSCLC, 70.5 µM. The TGI was > 100 µM in the test on NCI-H226 lung; 86.8 µM in the test on HOP-92 NSCLC; > 100 µM in the test on HCT-15 colon; > 100 µM in the test with OVCAR-8 ovarian; 17.4 µM in the test with SK-MEL-5 melanoma; > 100 µM in the test with BT-549 breast. Besides, the TGI in the test with T-47D breast was > 100 µM; in the test on SK-MEL-2 melanoma, 18.4 µM; in the test on SN12C renal, > 100 µM; with EKVX NSCLC it was > 100 µM.
On to `Cn1cc(-c2nc(N[C@@H]3CCCC[C@@H]3N)c(F)c3c2C(=O)NC3)cn1`, for which the GI50 in the test on NCI-H226 lung is 2.93 µM and 3.83 µM; with HOP-92 NSCLC, 3.62 µM and 4.47 µM; with HCT-15 colon, 12 µM and 13.3 µM; with OVCAR-8 ovarian it was 10.8 µM and 12.4 µM; in the test on SK-MEL-5 melanoma it was 29.2 µM and 22.6 µM; in the test with BT-549 breast, 6.47 µM and 10 µM. For the same molecule, the GI50 in the test with T-47D breast is 24.8 µM and 33.7 µM; in the test on SK-MEL-2 melanoma it was 20.5 µM and 24.9 µM; in the test with SN12C renal, 3.61 µM and 3.8 µM; in the test with EKVX NSCLC it was 14.3 µM and 20.1 µM. In addition, the TGI is 23.9 µM and 49.7 µM with NCI-H226 lung; 23.9 µM and 29.1 µM with HOP-92 NSCLC; > 100 µM in the test on HCT-15 colon; 66.1 µM and > 75.3 µM in the test on OVCAR-8 ovarian; > 100 µM in the test on SK-MEL-5 melanoma; 21.3 µM and 29.7 µM with BT-549 breast. The TGI was 77.3 µM and > 96.6 µM in the test with T-47D breast; > 100 µM in the test on SK-MEL-2 melanoma; > 100 µM with SN12C renal; > 100 µM with EKVX NSCLC.
